Data from US20040029908A1, “Tricyclo compounds, a process for their production and a pharmaceutical composition containing the same” (FUJISAWA PHARMACEUTICAL CO., LTD., priority 1984, published 2004).
≈ marks a conversion by molar mass, not a printed value.

Tests used:
[1] = tested on: ddY mice; assay: Acute toxicities in ddY mice by intraperitoneal injection; type: in vivo; conditions: ddY mice, intraperitoneal injection
[2] = tested on: Fusarium oxysporum; assay: Antimicrobial activity, serial agar dilution method in Sabouraud agar; type: cell-based; conditions: 30° C., 24 hours
Method: (§1) Antimicrobial activities of the tricyclo compounds (I) against various fungi were determined by a serial agar dilution method in a Sabouraud agar. Minimum inhibitory concentrations (MIC) were expressed in terms of μg/ml after incubation at 30° C. for 24 hours.

[3] = tested on: Aspergillus fumigatus IFO 5840; assay: as above; type: cell-based; conditions: IFO5840, 30° C., 24 hours
Method: as §1

[4] = tested on: Skin Allograft Survival in Rats (Fischer donor, WKA recipient); assay: Skin Allograft Survival in Rats; type: in vivo, rat; conditions: daily treatment, intramuscularly, 14 consecutive days
Method: Vental allografts from donor (Fischer) rats were grafted onto the lateral thoracic area of recipient (WKA) rats. The dressings were removed on day 5. The grafts were inspected daily until rejection which was defined as more than 90% necrosis of the graft epitherium.
The FR-900506 substance was dissolved in olive oil and administered intramuscularly for 14 consecutive days, beginning at the day of transplantation.

[5] = tested on: interleukin 3 and interferones; assay: Lymphokine production in the supernatant of MLR; type: cell-based, mouse; conditions: especially y-interferone
Method: (§2) The mixed lymphocyte reaction (MILR) was performed in microtiter plates, with each well containing 5 ×10^5 C57BL/6 responder cells (H-2^b), 5 ×10^5 mitomycin C treated (25 μg/ml mitomycin C at 37° C. for 30 minutes and washed three times pith RPMI 1640 medium) BALB/C stimulator cells ([…]) in 0.2 ml RPMI 1640 medium supplemented with 10% fetal calf serum, 2mM sodium hydrogen carbonate, penicillin 20 (50 unites/ml) and streptomycin (50 μg/ml) . The cells were incubated at 37° C. in humidified atmosphere of 5% carbon dioxide and 95% of air for 48 hours and the supernatant was collected. The FR-900506 substance was dissolved in ethanol and further diluted in RPMI 1640 medium and added to the cultures to give final concentrations of 0.1 μg/ml or less.

[6] = tested on: Antibody formation to sheep erythrocytes (SRBC) in BDF1 mice; assay: Antibody Formation in mice (haemagglutination test); type: in vivo, mouse
Method: Male BDF1 mice 6 to 8 weeks of age were used for this test. The mice were immunized on day 0 with […] sheep erythrocytes (SRBC) intraperitoneally. Serum aggulutinin titers were determined for each individual animal with sedimentation of erythrocytes by serial two fold dilutions. The titers are expressed as -log2 The FR-900506 substance was administered orally for 5 days from one day before immunization to day 3.

[7] = tested on: Local Graft-versus-Host Reaction in BDF1 mice; assay: Local Graft-versus-Host Reaction (GvHR) in Mice; type: in vivo; conditions: Mus musculus, po; orally for five days; weight difference right and left popliteal lymph nodes, day 7; read-out: ED50 for prevention of the local graft-versus-host reaction
Method: The viable spleen cells ([…] cells) from C57BL/6 donors were injected subcutaneously into the right hind foot pad of BDF1 mice to induce local GvHR. The mice were killed 7 days later and both right (injected paw) and left (uninjected paw) popliteal lymph nodes (PLN) were weighed. The GVHR was expressed as the weight difference between right and left PLN. The FR-900506 substance was dissolved in olive oil and administered orally for five days starting on the same day as sensitization.

[8] = tested on: Interleukin-2 (IL-2) Production; assay: Inhibition of Interleukin-2 (IL-2) Production in MLR, CTLL-2 bioassay; type: cell-based, mouse; conditions: for IL-2: MLR supernatant at 48 hours
Method: as §2
The IL-2 activity was measured according to the method described by S. Gillis et. al. [Journal of Inununology, Vol. 120, page 2027, (1978)]. The IL-2 dependent CTLL-2 cell line was used to quantitate IL-2 activity. Cells (5 ×10^3/well) were cultured at 37° C. for 24 hours with various dilutions of IL-2 containing supernatant from MLR. The uptake of ^3H-thymidine was measured by pulsing cultures with 0.5 uCi of 1T-thymidine for 6 hours. The unit value was calculated by dilution analysis of test sample and was compared with a laboratory standard preparation in which 100 units are equivalent to the amount of IL-2 necessary to achieve 50% proliferation of CTLL-2 cells.

[9] = tested on: mouse MLR (C57BL/6 responder cells, mitomycin C treated BALB/C stimulator cells); assay: Suppression of in vitro Mixed Lymphocyte Reaction (MLR), 3H-thymidine uptake; type: cell-based
Method: The MLR test was performed in microtiter plates, with each well containing 5 ×10^5 C57BL/6 responder cells (H-2^b ), 5 ×10^5 mitomycin C treated (25μg/ml mitomycin C at 37° C. for 30 minutes and washed three times with RPMI 1640 medium) BALB/C stimulator cells (H-2^d) in 0.2 ml RPMI 1640 medium supplemented with 10% fetal calf serum, 2mM sodium hydrogen carbonate, penicillin (50 unit/ml) and streptomycin (50 μg/ml) . The cells were incubated at 37 ° C. in humidified atmosphere of 5% carbon dioxide and 95% of air for 68 hours and pulsed with ^3H-thymidine (0.5 μCi) 4 hours before the cells were collected. The object compound of this invention was dissolved in ethanol and further diluted in RPMI 1640 medium and added to the cultures to give final concentrations of 0.1 μg/ml or less.

[10] = tested on: Experimental Allergic Encephalomyelytis in SJL/J Mice; assay: Experimental Allergic Encephalomyelitis (EAE) in SJL/J Mice; type: in vivo, mouse

For `C=CCC1/C=C(\C)CC(C)CC(OC)C2OC(O)(C(=O)C(=O)N3CCCCC3C(=O)OC(/C(C)=C/C3CCC(O)C(OC)C3)C(C)C(O)CC1=O)C(C)CC2OC` (stereo not shown) [FR-900506, 17-Allyl-1,14-dihydroxy-12-[2-(4-hydroxy-3-methoxycyclohexyl)-1-methyvinyl]-23-25-dimethoxy-13,19,21,27-tetramethyl-11,28-dioxa-4-azatricyclo[22.3.1.0^4,9]octacos-18-ene-2,3,10,16-tetraone], the “the dead at dose of 100 mg/kg” value [1] was “could not be observed”, the MIC [2] was 0.05 µg/mL (≈ 0.0622 µM) and the MIC [3] was 0.025 µg/mL (≈ 0.0311 µM). The “Effect on skin allograft survival (in words)” value [4] was “clearly prolonged skin allograft survival”, the “Lymphokine production (in words)” value [5] was “inhibited lymphokine production such as interleukin 3 and interferones” and the “Haemagglutination Mean log2 titer ± SE” value ([6]; 10 mg/kg orally for 5 days) was 7.6 ± 0.4. The “Haemagglutination Mean log2 titer ± SE” value ([6]; 32 mg/kg orally for 5 days) was 6.0 ± 0.45, the “Haemagglutination Mean log2 titer ± SE” value ([6]; 100 mg/kg orally for 5 days) was 4.4 ± 0.75 and the ED50 ([6]; Erythrocyte, po, orally for 5 days from one day before immunization to day 3) was 16.9 mg/kg. The ED50 [7] was 19 mg/kg, the “Production of IL-2 from mouse MLR (in words)” value [8] was “inhibited the production of Il-2 from mouse MLR” and the IL-2 ([8]; 0.1 nM) was 25.0 units/ml. It also gave an IL-2 ([8]; 0.3 nM) of 0.2 units/ml, an IL-2 ([8]; 1 nM) of 0 units/ml and an IL-2 ([8]; 10 nM) of 0 units/ml. The inhibition at 0.0001 µM ([8]; Mus musculus, CTLL-2, 0.1 nM) was 34.4%, the inhibition at 0.0003 µM ([8]; Mus musculus, CTLL-2, 0.3 nM) was 99.5% and the inhibition at 0.001 µM ([8]; Mus musculus, CTLL-2, 1 nM) was 100%. The inhibition at 0.01 µM ([8]; Mus musculus, CTLL-2, 10 nM) was 100%, the “Radioactivities (mean C.P.M. ± S.E.)” value ([9]; 0.078 ng/ml) was 7189 ± 365 C.P.M and the “Suppression (%)” value ([9]; 0.078 ng/ml) was 27.6%. The “Radioactivities (mean C.P.M. ± S.E.)” value ([9]; 0.156 ng/ml) was 5490 ± 431 C.P.M, the “Suppression (%)” value ([9]; 0.156 ng/ml) was 44.7% and the “Radioactivities (mean C.P.M. ± S.E.)” value ([9]; 0.313 ng/ml) was 3880 ± 222 C.P.M. For the same compound, the “Suppression (%)” value ([9]; 0.313 ng/ml) was 60.9%, the “Radioactivities (mean C.P.M. ± S.E.)” value ([9]; 0.625 ng/ml) was 614 ± 57 C.P.M and the “Suppression (%)” value ([9]; 0.625 ng/ml) was 93.8%. For the same compound, the “Radioactivities (mean C.P.M. ± S.E.)” value ([9]; 1.25 ng/ml) was 168 ± 23 C.P.M, the “Suppression (%)” value ([9]; 1.25 ng/ml) was 98.3% and the “Radioactivities (mean C.P.M. ± S.E.)” value ([9]; 2.5 ng/ml) was 54 ± 4 C.P.M. For the same compound, the “Suppression (%)” value ([9]; 2.5 ng/ml) was 99.5%, the IC50 ([9]; Lymphocyte, mouse MLR, 68 hours, 3H-thymidine) was 0.00026 µg/mL (≈ 0.000323 µM) and the “Number of Animals with Disease at Day 24” value ([10]; 32 mg/kg orally for 19 days starting on day 0) was 0/5. The “Development of clinical signs of EAE (in words)” value ([10]; orally for 19 days starting on day 0) was “clearly prevented the development of clinical signs of EAE”.
